# Measurements reported in the Biogen ADME set (Fang et al. 2023).
# Details: for aqueous solubility: pH 6.8
SMILES,"intrinsic clearance, human liver microsomes","intrinsic clearance, rat liver microsomes",MDR1-MDCK efflux ratio,aqueous solubility,"fraction unbound, human plasma","fraction unbound, rat plasma"
COc1cc(Nc2cc(-c3cccc(C#N)c3)ccn2)ccc1N1CCN(C)CC1,5.88 mL/min/kg,198 mL/min/kg,3.85,45.8 µg/mL,–,–
CNC(=O)c1ccc2c(c1)NC(=O)/C2=C(\Nc1cccc(CN(C)C)c1)c1ccccc1,–,–,–,8.39 µg/mL,–,–
COc1ccc(N)c(OCc2ccccc2)c1,103 mL/min/kg,707 mL/min/kg,0.705,–,–,–
Cc1cccc(NC(=O)CN(C)Cc2nc3ccccc3c(=O)[nH]2)c1C,54 mL/min/kg,571 mL/min/kg,17.6,–,–,–
O=C(CCNC(=O)c1ccc(OC(F)(F)F)cc1)N[C@@H]1CCCc2ccccc21,154 mL/min/kg,797 mL/min/kg,3.14,4.6 µg/mL,0.0336,0.0427
COc1cc(Br)c2c(=O)[nH]c(C)nc2c1,13.9 mL/min/kg,148 mL/min/kg,0.691,–,–,–
c1ccn2cc(CSc3ccc(-n4cccn4)nn3)nc2c1,18.6 mL/min/kg,630 mL/min/kg,0.732,–,–,–
CC(C)c1nnc(-c2ccc(-c3ccccc3)nc2)n1-c1cccc2nonc12,8.27 mL/min/kg,518 mL/min/kg,4.09,53.4 µg/mL,–,–
C=CCn1cnc2c(Cl)cc(-c3ccc(C(=O)NC4CC4)o3)cc21,27.5 mL/min/kg,115 mL/min/kg,5.09,33.2 µg/mL,–,–
COc1cccc(OCCCn2cncc2-c2cc3c(cc2C)n(C)c(=O)n3C)c1,38.4 mL/min/kg,352 mL/min/kg,143,55.4 µg/mL,–,–
CS(=O)(=O)NCc1cc2n(n1)CCN(C1Cc3ccccc3C1)C2,≤ 4.74 mL/min/kg,27.7 mL/min/kg,2.92,–,–,–

# The remaining lines, values ahead:
"intrinsic clearance, human liver microsomes","intrinsic clearance, rat liver microsomes",MDR1-MDCK efflux ratio,aqueous solubility,"fraction unbound, human plasma","fraction unbound, rat plasma",SMILES
86.8 mL/min/kg,337 mL/min/kg,–,–,–,–,Cc1noc(C)c1COc1ccc2ncccc2c1
≤ 4.74 mL/min/kg,41.1 mL/min/kg,0.976,62.7 µg/mL,–,–,Brc1ccc(-c2nnc(Cn3cnc4ccccc43)o2)o1
37.1 mL/min/kg,118 mL/min/kg,0.408,25.6 µg/mL,–,–,CNc1nc(-c2cc(OC)cc(OC)c2)ncc1F
≤ 4.74 mL/min/kg,≤ 10.7 mL/min/kg,0.596,39.2 µg/mL,–,–,O=C(NCc1ccccn1)c1ccc(F)cc1Cl
≤ 4.74 mL/min/kg,≤ 10.7 mL/min/kg,0.719,90.9 µg/mL,–,–,Cc1cc(C(=O)N(C)C2CCC2)n2nccc2n1
≤ 4.74 mL/min/kg,20.4 mL/min/kg,–,–,–,–,Cc1ccncc1NC(=O)Cc1ccc(F)cc1
40.7 mL/min/kg,102 mL/min/kg,–,43 µg/mL,–,–,CCc1cc2c(Nc3cnn(CC)c3)ncnc2s1
15.7 mL/min/kg,541 mL/min/kg,123,36.8 µg/mL,–,–,Cc1ccc(-c2ccc(-c3nccn3CCCn3cnnc3)o2)cc1
36.6 mL/min/kg,76.6 mL/min/kg,1.2,–,–,–,COCC(=O)Nc1ccc(NC(=O)Cc2cc(C)ccc2C)cc1
39 mL/min/kg,83.5 mL/min/kg,0.616,38.1 µg/mL,–,–,CCCNC(=O)c1ccnc(N(C)C)c1
–,–,–,53.5 µg/mL,–,–,CN(C)CCn1ccc2cc(NC(=O)c3ccc(=O)[nH]n3)ccc21
–,–,–,44.6 µg/mL,–,–,Cc1ccc(F)c(N(C#N)Cc2nnc(C)o2)c1
